Measurements taken from PubChem BioAssay AID2060901 (Molecular Pharmacology Branch, DTP, NCI, 2025).

Test system: 422866-222-R5-J1-PDC complex spheroids viability
Assay: Anticancer human tumor 422866-222-R5-J1-PDC patient-derived pancreatic adenocarcinoma cell line growth inhibition [RAS]
Conditions: for IC50: curve of first compound; for viability, T/C: stronger effect = lower value
Source text: RAS pathway inhibitors in Combinations in Complex Spheroids
A high-throughput screen of multi-cell type tumor spheroids was designed to identify active combinations of RAS pathway inhibitors and targeted small molecules. Complex spheroids include a stromal component modeled by human endothelial cells (HUVEC) and fibroblasts modeled by human mesenchymal stem cells (MSCs). The concentration ranges selected for each drug and investigational agent were based upon clinically achievable concentrations if the clinical Cmax of the agent was known.
Compounds. The drugs and investigational agents: abemaciclib (NSC768073), cobimetinib (NSC768068), divarasib (GDC6063, NSC841802), docetaxel (NSC628503), GDC-1971 (RLY-1971, NSC841576), gemcitabine (NSC613327), inavolisib (NSC800729), ipatasertib (NSC767898), KB-0742 (NSC834161), MRTX-1133 (NSC836407), osimertinib (NSC779217), RMC-4630 (NSC839698), RMC-6236 (NSC851965), RMC-6291 (NSC852671), Ro-3306 (NSC812927), sapanisertib (NSC764658), SN-38 (NSC673596), staurosporine (NSC755774), SY5609 (NSC837396), and tovorafenib (DAY101, NSC766906), were obtained from the National Cancer Institute (NCI) Developmental Therapeutics Program Chemical Repository. The FDA-approved anticancer drug set is available from the NCI Developmental Therapeutics Program. […] The stock solutions were prepared in dimethyl sulfoxide (DMSO, Sigma-Aldrich, St. Louis, MO, cat. D2650) at 800-fold the tested concentration and stored at -70 degrees C prior to their use. All drugs and investigational agents were tested over a range starting from a high concentration at or near the clinical Cmax and decreasing in half-log increments. If the clinical Cmax for an agent had not been determined, the highest concentration tested was 10 microM.
Cell Culture. All cells were maintained in an incubator at 37 degrees C and 5% CO2 with 95% humidity. The PDC lines were cultured according to standard operating procedures established by the NCI PDMR. All PDCs were thawed and cultured in Matrigel-coated flasks prepared with a working solution of 1X Ham's F-12 nutrient mix, without supplementation (Invitrogen, Waltham, MA, cat. 11765054), 100 U/mL penicillin-streptomycin (Invitrogen, cat. 15140122), and 2.5% Matrigel (Corning Inc., Corning, NY, cat. 354248) for the first three passages. The 362531-283-R-J2-PDC and 782815-120-R-J1-PDC lines were cultured in 6C/Colon 1B media, which includes advanced DMEM/F-12 (Thermo Fisher Scientific, cat. 12634028), 10 mM HEPES (Thermo Fisher Scientific, cat. 15630080), 1X GlutaMAX supplement (Thermo Fisher Scientific, cat. 35050061), 0.1 mg/mL primocin (InvivoGen, San Diego, CA, cat. ant-pm-2), 10% defined fetal bovine serum, heat inactivated (HyClone Laboratories Inc., Logan, UT, cat. SH30070.03HI), 50% L-WRN conditioned media (ATCC, cat. CRL-3276), 1.25 mM N-Acetyl-L-cysteine (Sigma-Aldrich, cat. A9165), 10 mM nicotinamide (Sigma-Aldrich, cat. N0636), 1X B-27 supplement (Thermo Fisher Scientific, cat. 17504044), 1X N-2 supplement (Thermo Fisher Scientific, cat. 17502048), 50 ng/mL human EGF (Thermo Fisher Scientific, cat. PHG0311), and 10 microM Y-27632 dihydrochloride (Tocris Bioscience, cat. 1254). The K12877-001-R-J1-PDC line was cultured in 6I media, which includes all 6C/Colon 1B media plus 10 ng/mL human FGF-10 (PeproTech, cat. 100-26), 1 ng/mL human FGF-2 (PeproTech, cat. 100-18B), 1 µM prostaglandin E2 (Tocris Bioscience, cat. 2296), […] hydrocortisone (Sigma-Aldrich, cat. H4001), and […] bovine insulin (Sigma-Aldrich, cat. I6634). The K86415-001-R-J1-PDC line was cultured in 6D media, which includes all 6C/Colon 1B media components minus the L-WRN conditioned media. The 485176-168-R4-J1-PDC was cultured in PANC media, which includes all 6C/Colon 1B media plus 100 ng/mL human FGF-10 (PeproTech, cat. 100-26), 500 nM SB-431542 (Selleckchem, cat. S1067), and 10 nM gastrin (Tocris Bioscience, cat. 3006). […]
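Also: spheroids exposed to compounds for 7 days.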
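For viability, T/C in this document: 100% = DMSO vehicle control viability.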

C[C@@H](NC(=O)c1ncnc(N)c1Cl)c1ncc(C(=O)Nc2cc(C(F)(F)F)c(Cl)cn2)s1 + C=CC(=O)N1CCN(c2nc(OCC3CCCN3C)nc3c(F)c(-c4nc(N)cc(C)c4C(F)(F)F)c(Cl)cc23)C(C)C1
IC50 (second compound 0.00316 µM): < 31.6 nM | IC50 (second compound 0.01 µM): < 31.6 nM | IC50 (second compound 0.0316 µM): < 31.6 nM | IC50 (second compound 0.1 µM): < 31.6 nM | IC50 (second compound 0.316 µM): < 31.6 nM | IC50 (second compound 1 µM): < 31.6 nM | viability, T/C (second compound 0.00316 µM, first compound 0.0316 µM): 31.7% | viability, T/C (second compound 0.00316 µM, first compound 0.1 µM): 47.2% | viability, T/C (second compound 0.00316 µM, first compound 0.316 µM): 31.7% | viability, T/C (second compound 0.00316 µM, first compound 1 µM): 29% | viability, T/C (second compound 0.00316 µM, first compound 3.16 µM): 32% | viability, T/C (second compound 0.00316 µM, first compound 10 µM): 30.6% | viability, T/C (second compound 0.01 µM, first compound 0.0316 µM): 41.5% | viability, T/C (second compound 0.01 µM, first compound 0.1 µM): 32.2% | viability, T/C (second compound 0.01 µM, first compound 0.316 µM): 33.3% | viability, T/C (second compound 0.01 µM, first compound 1 µM): 29.2% | viability, T/C (second compound 0.01 µM, first compound 3.16 µM): 30% | viability, T/C (second compound 0.01 µM, first compound 10 µM): 28.9% | viability, T/C (second compound 0.0316 µM, first compound 0.0316 µM): 30.8% | viability, T/C (second compound 0.0316 µM, first compound 0.1 µM): 30.8% | viability, T/C (second compound 0.0316 µM, first compound 0.316 µM): 25.1% | viability, T/C (second compound 0.0316 µM, first compound 1 µM): 27.4% | viability, T/C (second compound 0.0316 µM, first compound 3.16 µM): 29.5% | viability, T/C (second compound 0.0316 µM, first compound 10 µM): 26.7% | viability, T/C (second compound 0.1 µM, first compound 0.0316 µM): 30.5% | viability, T/C (second compound 0.1 µM, first compound 0.1 µM): 25% | viability, T/C (second compound 0.1 µM, first compound 0.316 µM): 27.9% | viability, T/C (second compound 0.1 µM, first compound 1 µM): 30.3% | viability, T/C (second compound 0.1 µM, first compound 3.16 µM): 26.7% | viability, T/C (second compound 0.1 µM, first compound 10 µM): 30.5% | viability, T/C (second compound 0.316 µM, first compound 0.0316 µM): 28% | viability, T/C (second compound 0.316 µM, first compound 0.1 µM): 24.1% | viability, T/C (second compound 0.316 µM, first compound 0.316 µM): 27.6% | viability, T/C (second compound 0.316 µM, first compound 1 µM): 23.1% | viability, T/C (second compound 0.316 µM, first compound 3.16 µM): 28.6% | viability, T/C (second compound 0.316 µM, first compound 10 µM): 31.8% | viability, T/C (second compound 1 µM, first compound 0.0316 µM): 27.1% | viability, T/C (second compound 1 µM, first compound 0.1 µM): 29.4% | viability, T/C (second compound 1 µM, first compound 0.316 µM): 27.2% | viability, T/C (second compound 1 µM, first compound 1 µM): 30% | viability, T/C (second compound 1 µM, first compound 3.16 µM): 32.1% | viability, T/C (second compound 1 µM, first compound 10 µM): 29.4%
